Reference: patent publication US12409209B2, “Biological function regulating agent, epidermal metabolism promoting agent, fat accumulation inhibiting agent, fat decomposition promoting agent, adiponectin production promoting agent, functional food, cosmetic product, and method for producing biological function regulating agent” (NITTA GELATIN INC., priority 2020, dated 2025)

Tests used:
[1] = tested on: fat cells differentiated from mouse-derived precursor fat cells (3T3-L1); experiment: Eleventh test: fat accumulation in fat cells (Oil Red O); type: cell-based; settings: positive control, final conc. 2 ug/mL; 3T3-L1 7 passages, 13 PDL
Method: The mouse-derived precursor fat cells (manufactured by Research Resources Bank, Resource No. JCRB 9014, Lot No. 01282009) were precultured in a culture medium (DMEM/F12 medium (passage culture, catalog No: “11330-032”, manufactured by Gibco Company, containing 10 mass % FBS, penicillin and streptomycin). Subsequently, from the medium and the cells subjected to the preculture, a cell suspension liquid containing the cells at 3×10^4 cells/mL was prepared. Further, 5 mL of the cell suspension liquid was seeded in each of 60 mm dishes (catalog No: Corning, Cat. No. 430166) (1.5×10^5 cells/dish), and cultured for 2 days under the condition of 37° C. (5 vol % CO2). […] 200 μL of the extraction liquid was transferred to a 96-well plate, and the absorbance at OD 520 nm was measured with an absorption spectrometer (trade name: “Synergy HTX” manufactured by Biotech Japan Corporation). It is evaluated that the higher the value of the absorbance at OD 520 nm, the more likely the fat accumulation is to occur in fat cells. […] The fat accumulation ratio in fat cells containing each sample, the berberine chloride solution or RO water was determined in accordance with the following calculation expression. Fat accumulation ratio (%)=[(measured value at OD 520 nm for each sample)/(measured value at OD 520 nm for blank)×100] […]

[2] = tested on: fat cells differentiated from mouse-derived precursor fat cells (3T3-L1); experiment: Third test: fat accumulation in fat cells (Oil Red O, OD 520 nm); type: cell-based; settings: positive control, final conc. 2 μg/mL; 3T3-L1 5 passages, 9 PDL; average of three
Method: Specifically, the third test was conducted in accordance with the following procedure. The mouse-derived precursor fat cells (manufactured by Research Resources Bank, Resource No. JCRB 9014, Lot No. 01282009) were precultured in a culture medium (DMEM/F12 medium (passage culture, catalog No: “11330-032”, manufactured by Gibco Company, containing 10 mass % FBS, penicillin and streptomycin). Subsequently, from the medium and the cells subjected to the preculture, a cell suspension liquid containing the cells at 3×10^4 cells/mL was prepared. Further, 5 mL of the cell suspension liquid was seeded in each of 60 mm dishes (catalog No: Corning, Cat. No. 430166) (1.5×10^5 cells/dish), and cultured for 2 days under the condition of 37° C. (5 vol % CO2). […] 200 μL of the extraction liquid was transferred to a 96-well plate, and the absorbance at OD 520 nm was measured with an absorption spectrometer (trade name: “Synergy HTX” manufactured by Biotech Japan Corporation). It is evaluated that the higher the value of the absorbance at OD 520 nm, the more likely the fat accumulation is to occur in fat cells. […] The fat accumulation ratio in fat cells containing each sample, the berberine chloride solution or RO water was determined in accordance with the following calculation expression. […]

COc1ccc2cc3[n+](cc2c1OC)CCc1cc2c(cc1-3)OCO2 [Berberine chloride, berberine chloride]
Fat accumulation ratio, Ave (Blank = 100) [1]: 60% | Fat accumulation ratio, Ave (Blank = 100) [2]: 37%
